Data on seven compounds can be found in US7648983B2, “BACE inhibitors” (Eli Lilly and Company, priority 2008, dated 2010).

Counter-ions that a name gives are not always drawn. Like-named read-outs stand apart in the source and are kept apart here. Bounds are passed on as bounds.

One experiment deals with T1, beta-secretase (Mus musculus, UniProt P56818).
T1 construct: from tissue; host or cells: living PDAPP mice; brain cortex, plasma and CSF analysed
In words: In vivo inhibition of beta-secretase in PDAPP mice. The note with it: 3 hours. An excerpt: Several animal models, including mouse, guinea pig, dog, and monkey, may be used to screen for inhibition of beta-secretase activity in vivo following compound treatment. Animals used in this invention can be wild type, transgenic, or gene knockout animals. For example, the PDAPP mouse model, prepared as described in Games et al., Nature 373, 523-527 (1995), and other non-transgenic or gene knockout animals are useful to analyze in vivo inhibition of Abeta and sAPPbeta production in the presence of inhibitory compounds. Generally, 2 to 12 month old PDAPP mice, gene knockout mice or non-transgenic animals are administered compound formulated in vehicles, such as corn oil, cyclodextran, phosphate buffers, PHARMASOLVE®, or other suitable vehicles. One to twenty-four hours following the administration of compound, animals are sacrificed, and brains as well as cerebrospinal fluid and plasma are removed for analysis of Abetas, C99 and sAPP fragments. (See Dovey, et al., Journal of Neurochemistry, 76, 173-181 (2001); and Johnson-Wood, et al., Proc. Natl. Acad. Sci. USA, 94, 1550-1555 (1997)).
For standard efficacy studies, animals are dosed with various concentrations of compound and compared to a vehicle-treated control group dosed at the same time. For some time course studies, brain tissue, plasma or cerebrospinal fluid is obtained from selected animals, beginning at time 0 to establish a baseline. Compound is administered to other groups and sacrificed at various times after dosing. Brain tissue, plasma or cerebrospinal fluid is obtained from selected animals and analyzed for the presence of APP cleavage products, including Abeta peptides, sAPPbeta and other APP fragments, for example, by specific sandwich ELISA assays. At the end of the test period, animals are sacrificed and brain tissues, plasma or cerebrospinal fluid are analyzed for the presence of Abeta peptides, C99 and sAPPbeta. Brain tissues of APP transgenic animals are also analyzed for the amount of beta-amyloid plaques following compound treatment.
For example, 3 hours after administration of 100 mg/kg sub-cutaneous dose of the compound of example 19 to young male PDAPP mice, Abeta 1-x peptide, C99 and sAPPb levels are reduced approximately 30%, 50% and 20% in brain cortex, respectively, compared to vehicle-treated mice.

In the next experiment the target is T2, human BACE(1-460):Fc (Homo sapiens, UniProt P56817).
T2 construct: made in house; host or cells: HEK293 cells (transient, pJB02 vector), purified from conditioned media by Protein A
Kind of experiment: BACE FRET assay. Format: biochemical. The procedure: (§1) For in vitro enzymatic and cellular assays, test compounds are prepared in DMSO to make up a 10 mM stock solution. The stock solution is serially diluted in DMSO to obtain a ten-point dilution curve with final compound concentrations ranging from […] to 1 pM in a 96-well round-bottom plate before conducting the in vitro enzymatic and whole cell assays.
Serial dilutions of test compounds are prepared as described above. Compounds are further diluted 20× in KH2PO4 buffer. Ten μL of each dilution is added to each well on row A to H of a corresponding low protein binding black plate containing the reaction mixture (25 μL of 50 mM KH2PO4, pH 4.6, 1 mM TRITON® X-100, 1 mg/mL Bovine Serum Albumin, and 15 μM of FRET substrate) (See Yang, et. al., J. Neurochemistry, 91(6) 1249-59 (2004)). The content is mixed well on a plate shaker for 10 minutes. Fifteen μL of two hundred pM human BACE(1-460):Fc (See Vasser, et al., Science, 286, 735-741 (1999)) in the KH2PO4 buffer is added to the plate containing substrate and test compounds to initiate the reaction. The RFU of the mixture at time 0 is recorded at excitation wavelength 355 nm and emission wavelength 460 nm, after brief mixing on a plate shaker. The reaction plate is covered with aluminum foil and kept in a dark humidified oven at room temperature for 16 to 24 h. The RFU at the end of incubation is recorded with the same excitation and emission setting. The difference of the RFU at time 0 and the end of incubation is representative of the activity of BACE under the compound treatment. RFU differences are plotted versus inhibitor concentration and a curve is fitted with a four-parameter logistic equation to obtain the EC50 and IC50 values. (See Sinha, et al., Nature, 402, 537-540 (2000)).
Human (accession number: AF190725) is cloned from total brain cDNA by […]. The nucleotide sequences corresponding to amino acid sequences #1 to 460 are inserted into the cDNA encoding human IgG1 (Fc) polypeptide (Vassar et al. 1999). This fusion protein of BACE(1-460) and human Fc, named huBACE:Fc, is constructed into the pJB02 vector. Human BACE(1-460):Fc (huBACE:Fc) is transiently expressed in HEK293 cells. 250 μg cDNA of each construct is mixed with Fugene 6 and added to 1 liter HEK293 cells. Four days after the transfection, conditioned media are harvested for purification.
huBACE:Fc is purified by Protein A chromatography. The enzyme is stored at −80° C. in small aliquots.

Experiment [1] deals with T3, beta-secretase (BACE) in primary cortical neurons from PDAPP transgenic embryonic mice (Mus musculus, UniProt P56818).
T3 construct: endogenous in cells; host or cells: primary cortical neurons from Embryonic Day 16 PDAPP transgenic mouse embryos
In words: PDAPP primary neuronal assay (Abeta ELISA). Format: cell-based. The procedure:
as §1
A confirmatory whole cell assay is also run in primary neuronal cultures generated from PDAPP transgenic embryonic mice. Primary cortical neurons are prepared from Embryonic Day 16 PDAPP embryos and cultured in 96 well plates (15×10^4 cells/well in DMEM/F12 (1:1) plus 10% FBS). After 4-6 days in vitro, culture media is replaced with serum free DMEM/F12 (1:1) containing B27 supplement and neurons are incubated at 37° C. for 24 h in the presence/absence of inhibitors (diluted in DMSO) at the desired concentration. At the end of the incubation, conditioned media are analyzed for evidence of beta-secretase activity, for example, by analysis of Abeta peptides. Total Abeta peptides (Abeta 1-x) are measured by a sandwich ELISA, using monoclonal 266 as a capture antibody and biotinylated 3D6 as reporting antibody. Alternatively, Abeta 1-40 and Abeta 1-42 peptides are measured by a sandwich ELISA, using monoclonal 2G3 as a capture antibody for Abeta 1-40, and monoclonal 21F12 as a capture antibody for Abeta 1-42. Both Abeta 1-40 and Abeta 1-42 ELISAs use biotinylated 3D6 as the reporting antibody. The concentration of Abeta released in the conditioned media following the compound treatment corresponds to the activity of BACE under such conditions. The 10-point inhibition curve is plotted and fitted with the four-parameter logistic equation to obtain the EC50 and IC50 values for the Abeta-lowering effect. […]

Experiment [2] has as its target T4, beta-secretase (BACE) in HEK293/APP751sw cells (Homo sapiens, UniProt P56817).
T4 construct: endogenous in cells; host or cells: HEK293p (ATCC CRL-1573) stably expressing human APP751 Swedish
In words: HEK293Swe whole cell assay (Abeta ELISA). Format: cell-based. As to the method:
as §1
The routine whole cell assay for the measurement of inhibition of beta-secretase activity utilizes the human embryonic kidney cell line HEK293p (ATCC Accession No. CRL-1573) stably expressing a human APP751 cDNA containing the naturally occurring double mutation Lys651Met652 to […], commonly called the Swedish mutation (noted HEK293/APP751sw) and shown to overproduce Abeta (Citron, et al., Nature, 360, 672-674 (1992)). In vitro Aβ reduction assays have been described in the literature (See Dovey, et al., Journal of Neurochemistry, 76, 173-181 (2001); Seubert, et al., Nature, 361, 260 (1993); and Johnson-Wood, et al., Proc. Natl. Acad. Sci. USA, 94, 1550-1555 (1997)).
Cells (HEK293/APP751sw at 3.5×10^4 cells/well, containing 200 μL culture media, DMEM containing 10% FBS) are incubated at 37° C. for 4 to 24 h in the presence/absence of inhibitors (diluted in DMSO) at the desired concentration. At the end of the incubation, conditioned media are analyzed for evidence of beta-secretase activity, for example, by analysis of Abeta peptides. Total Abeta peptides (Abeta 1-x) are measured by a sandwich ELISA, using monoclonal 266 as a capture antibody and biotinylated 3D6 as reporting antibody. Alternatively, Abeta 1-40 and Abeta 1-42 peptides are measured by a sandwich ELISA, using monoclonal 2G3 as a capture antibody for Abeta 1-40, and monoclonal 21F12 as a capture antibody for Abeta 1-42. Both Abeta 1-40 and Abeta 1-42 ELISAs use biotinylated 3D6 as the reporting antibody. The concentration of Abeta released in the conditioned media following the compound treatment corresponds to the activity of BACE under such conditions. The 10-point inhibition curve is plotted and fitted with the four-parameter logistic equation to obtain the EC50 and IC50 values for the Abeta-lowering effect.
On the technique in general: An ELISA detects its analyte on a solid surface through an enzyme-linked reagent.

The mark [3] stands for this setting: 30 mg/kg sub-cutaneous, young male PDAPP mice, brain, vs vehicle-treated mice.
The mark [4] stands for this setting: Table 29, comparator of WO 2007/049532 and enantiomers.
Setting [5] is: Table 29, comparator of WO 2007/049532 and enantiomers, read-out: PDAPP Neuron A-beta (1-40) ELISA IC50.
[6] abbreviates: Table 29, comparator of WO 2007/049532 and enantiomers, read-out: PDAPP Neuron A-beta (1-42) ELISA IC50.
The mark [7] stands for this setting: Table 29, comparator of WO 2007/049532 and enantiomers, read-out: HEK 293 Swe A-beta (1-40) ELISA IC50.
[8] abbreviates: Table 29, comparator of WO 2007/049532 and enantiomers, read-out: HEK 293 Swe A-beta (1-42) ELISA IC50.
[9] abbreviates: Table 26, purified recombinant huBACE:Fc, FRET substrate, pH 4.6.
[10] abbreviates: Table 28, Abeta 1-40 in conditioned media, 24 h, read-out: PDAPP Neuron A-beta (1-40) ELISA IC50.
Where [11] appears, read: Table 28, Abeta 1-42 in conditioned media, 24 h, read-out: PDAPP Neuron A-beta (1-42) ELISA IC50.
Setting [12] is: Table 27, Abeta 1-40 in conditioned media, read-out: HEK 293 Swe A-beta (1-40) ELISA IC50.
Where [13] appears, read: Table 27, Abeta 1-42 in conditioned media, read-out: HEK 293 Swe A-beta (1-42) ELISA IC50.
The mark [14] stands for this setting: 100 mg/kg sub-cutaneous, young male PDAPP mice, vs vehicle-treated mice.

T3 sequence (P56818 46-501): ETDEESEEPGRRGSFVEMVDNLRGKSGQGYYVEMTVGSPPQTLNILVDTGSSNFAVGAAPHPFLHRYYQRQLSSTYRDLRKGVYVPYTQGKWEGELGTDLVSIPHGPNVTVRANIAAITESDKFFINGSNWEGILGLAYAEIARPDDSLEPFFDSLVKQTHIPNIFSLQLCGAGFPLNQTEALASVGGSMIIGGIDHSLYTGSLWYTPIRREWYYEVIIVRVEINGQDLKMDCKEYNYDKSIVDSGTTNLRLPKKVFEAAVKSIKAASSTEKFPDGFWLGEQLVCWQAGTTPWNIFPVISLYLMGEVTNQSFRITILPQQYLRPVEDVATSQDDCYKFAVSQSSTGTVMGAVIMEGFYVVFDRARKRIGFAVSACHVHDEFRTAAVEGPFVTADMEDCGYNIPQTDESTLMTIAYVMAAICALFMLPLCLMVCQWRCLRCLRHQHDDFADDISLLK
T1 sequence (P56818 46-501): as above
T2 sequence (P56817 22-460): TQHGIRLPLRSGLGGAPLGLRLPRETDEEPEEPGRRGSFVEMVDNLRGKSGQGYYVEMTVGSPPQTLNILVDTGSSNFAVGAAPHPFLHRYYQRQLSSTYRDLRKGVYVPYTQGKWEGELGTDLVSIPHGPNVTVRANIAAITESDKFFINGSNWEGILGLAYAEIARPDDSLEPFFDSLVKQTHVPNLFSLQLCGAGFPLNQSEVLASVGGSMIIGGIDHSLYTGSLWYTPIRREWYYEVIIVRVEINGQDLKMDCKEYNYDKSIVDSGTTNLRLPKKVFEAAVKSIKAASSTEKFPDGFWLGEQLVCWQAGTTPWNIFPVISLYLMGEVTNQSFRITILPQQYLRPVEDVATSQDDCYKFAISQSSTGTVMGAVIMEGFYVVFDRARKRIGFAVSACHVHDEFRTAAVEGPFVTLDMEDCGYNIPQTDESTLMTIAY
T4 sequence (P56817 46-501): as the sequence (P56818 46-501) above, with S6P, I162V, I165L, T180S, A182V, V340I, A393L, H443Q counted along it

In the case of `C[C@@]1(c2cc(-c3cncnc3)c(F)cc2F)CCSC(N)=N1` [Example 5, (S)-4-(2,4-Difluoro-5-pyrimidin-5-yl-phenyl)-4-methyl-5,6-dihydro-4H-[1,3]thiazin-2-ylamine], the “CSF Abeta 1-x level reduction” value on beta-secretase (10 mg/kg oral, CSF) is on record as approximately 60%. The “plasma Abeta 1-x level reduction” value on beta-secretase (10 mg/kg oral, plasma) was “approximately 50%”. On beta-secretase (setting [3]), the “Abeta 1-x peptide level reduction” value is listed as “approximately 50%”, the C99 level reduction is approximately 45% and the sAPPb level reduction entry is “approximately 30%”.

Usually IC50 stands for the concentration needed to halve the response being measured. Turning to `C[C@]1(c2ccc(-c3ccccc3)cc2)CCSC(N)=N1` [reference compound], the IC50 was more than 100000 nM against human BACE(1-460):Fc (setting [4]); 28100 nM in experiment [1] (setting [5]); 46800 nM in experiment [1] (setting [6]); 16.5 µM in experiment [2] (setting [7]); 23.7 µM in experiment [2] (setting [8]).

Regarding `CC1(C)C[C@@](C)(c2ccc(F)c(-c3cncnc3)c2)N=C(N)S1` [Example 21, (S)-4-(4-fluoro-3-(pyrimidin-5-yl)phenyl)-4,6,6-trimethyl-5,6-dihydro-4H-1,3-thiazin-2-amine], the IC50 at human BACE(1-460):Fc (setting [9]) was found to be 867 nM; in experiment [1] (setting [10]), 355 nM; in experiment [1] (setting [11]), 429 nM; in experiment [2] (setting [12]), 0.863 µM; in experiment [2] (setting [13]), 0.803 µM.

`C[C@@]1(c2ccc(F)c(-c3cnccn3)c2)CCSC(N)=N1` [Example 12, (S)-4-(4-fluoro-3-(pyrazin-2-yl)phenyl)-4-methyl-5,6-dihydro-4H-1,3-thiazin-2-amine dihydrochloride]: the IC50 stood at 833 nM at human BACE(1-460):Fc (setting [9]); 658 nM in experiment [1] (setting [10]); 648 nM in experiment [1] (setting [11]); 1.3 µM in experiment [2] (setting [12]); 0.948 µM in experiment [2] (setting [13]).

As to `COc1cncc(-c2cccc([C@]3(C)CCSC(N)=N3)c2)c1.Cl.Cl` [Example 19, (S)-4-[3-(5-Methoxy-pyridin-3-yl)-phenyl]-4-methyl-5,6-dihydro-4H-[1,3]thiazin-2-ylamine dihydrochloride], the IC50 came to 420 nM on human BACE(1-460):Fc (setting [9]); 288 nM in experiment [1] (setting [10]); 214 nM in experiment [1] (setting [11]); 0.335 µM in experiment [2] (setting [12]); 0.48 µM in experiment [2] (setting [13]). Further, the “Abeta 1-x peptide level reduction in brain cortex” value at beta-secretase (setting [14]) is “approximately 30%”. Besides, the “C99 level reduction in brain cortex” value on beta-secretase (setting [14]) is reported as “approximately 50%”. Moreover, the “sAPPb level reduction in brain cortex” value on beta-secretase (setting [14]) is given as approximately 20%.

Regarding `CC1(c2ccc(-c3ccccc3)cc2)CCSC(N)=N1` (stereo not drawn) [reference compound], the half-inhibitory concentration (IC50) at human BACE(1-460):Fc (setting [4]) is 116000 nM; in experiment [2] (setting [7]), 21.4 µM; in experiment [2] (setting [8]), 35.3 µM.

Consider `C[C@@]1(c2ccc(-c3ccccc3)cc2)CCSC(N)=N1` [reference compound], for which the IC50 stood at 28000 nM on human BACE(1-460):Fc (setting [4]); 7820 nM in experiment [1] (setting [5]); 10400 nM in experiment [1] (setting [6]); 13.2 µM in experiment [2] (setting [7]); 16.4 µM in experiment [2] (setting [8]).
